Experiments:
[1] = biological target: T1, Thioredoxin reductase 1, cytoplasmic (Rattus norvegicus, UniProt O89049)
T1 sequence (O89049 whole entry): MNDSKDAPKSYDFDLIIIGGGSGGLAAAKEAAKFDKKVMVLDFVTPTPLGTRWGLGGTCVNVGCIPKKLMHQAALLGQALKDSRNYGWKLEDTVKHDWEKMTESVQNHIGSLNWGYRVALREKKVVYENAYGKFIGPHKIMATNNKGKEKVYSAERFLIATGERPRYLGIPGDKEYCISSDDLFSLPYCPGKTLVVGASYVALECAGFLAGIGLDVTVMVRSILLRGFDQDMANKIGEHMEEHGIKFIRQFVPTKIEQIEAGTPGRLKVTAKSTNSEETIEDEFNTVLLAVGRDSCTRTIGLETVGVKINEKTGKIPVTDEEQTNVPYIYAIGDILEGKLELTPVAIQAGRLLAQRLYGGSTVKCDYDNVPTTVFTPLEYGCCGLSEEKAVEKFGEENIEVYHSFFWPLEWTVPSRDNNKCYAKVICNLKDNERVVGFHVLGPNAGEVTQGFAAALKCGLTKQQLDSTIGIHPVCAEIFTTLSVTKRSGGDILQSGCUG

[2] = biological target: Thioredoxin reductase 2, mitochondrial (Rattus norvegicus, UniProt Q9Z0J5)
Thioredoxin reductase 2, mitochondrial, sequence (Q9Z0J5 whole entry): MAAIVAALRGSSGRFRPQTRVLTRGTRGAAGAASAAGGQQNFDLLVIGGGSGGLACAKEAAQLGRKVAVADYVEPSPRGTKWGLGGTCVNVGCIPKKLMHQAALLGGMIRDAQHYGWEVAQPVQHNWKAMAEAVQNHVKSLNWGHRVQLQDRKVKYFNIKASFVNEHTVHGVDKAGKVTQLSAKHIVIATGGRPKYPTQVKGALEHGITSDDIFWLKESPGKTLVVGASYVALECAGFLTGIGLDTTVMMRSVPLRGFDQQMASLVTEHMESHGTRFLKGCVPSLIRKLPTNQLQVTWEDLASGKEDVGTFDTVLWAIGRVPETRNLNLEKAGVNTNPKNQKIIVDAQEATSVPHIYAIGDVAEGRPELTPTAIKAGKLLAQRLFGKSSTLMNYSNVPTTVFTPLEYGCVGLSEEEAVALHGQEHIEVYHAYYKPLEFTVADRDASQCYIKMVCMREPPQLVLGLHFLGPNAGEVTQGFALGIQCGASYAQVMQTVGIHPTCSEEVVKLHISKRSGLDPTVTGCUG

O=C(O)C1(C(=O)O)CCC1
IC50 [1]: > 200 µM
IC50 [2]: > 200 µM

— ChEMBL document CHEMBL1142497, “Emerging protein targets for anticancer metallodrugs: inhibition of thioredoxin reductase and cathepsin B by antitumor ruthenium(II)-arene compounds” (J Med Chem, 2008)
